Converted amounts (≈) assume the structure as drawn.
Tests used:
[1] = tested on: Klebsiella planticola (K589); assay: Susceptibility (MIC50/MIC90), broth microdilution
Method: (§1) MICs were determined by the broth microdilution method according to CLSI methods (Clinical and Laboratory Standards Institute, 2005). Inoculants were incubated at 37° C. on cation adjusted Mueller Hinton (MH) Broth for 18 to 24 h. Compound were dissolved in media to 10 doubling dilutions from 128 to 0.125 μg/mL. All the bacterial strains were grown in 96 well plate with low evaporation lid (Falcon, Becton Dickinson) in presence of derivatives of benzimidazoles at 0.125, 0.25, 0.5, 1, 2, 4, 8, 16, 32, 64, 128, 256 μg/mL concentrations. […] Plates were read by Tecan Micro-plate Reader at 600 nm.

[2] = tested on: Acinetobacter baumannii (AB387); assay: Susceptibility (MIC50/MIC90), broth microdilution
Method: as §1

[3] = molecular target: E. coli Topoisomerase IA (Escherichia coli, UniProt P06612); assay: Topoisomerase IA cleavage and religation assay; format: biochemical; details: biochemical assays and computational studies
Method: Compounds at different concentrations were added to DNA cleavage reaction mixtures (20 μl) containing 50 mM TrisHCl, pH 7.5, 2 mM MgCl2 0.2 mM DTT, 0.5 mM EDTA, 30 μg/ml BSA, 25 μg/ml of pHOT1 having specific site for DNA, 40 units of E. coli Topoisomerase IA and ligands was incubated at 37° C. for 30 min. The reactions was then terminated by adding 1% SDS and 150 μg/m Proteinase K, and incubated further for 1 h at 37° C. The DNA samples was electrophoresed in 1% agarose gel in 0.5×TBE. Ethidium bromide at a finial concentration of 0.5 μg/ml was included in the gel to resolve slowly migrating nicked product (cleavable complex) from the supercoiled DNA molecules.

[4] = tested on: Klebsiella planticola (K235); assay: Susceptibility (MIC50/MIC90), broth microdilution
Method: as §1

[5] = tested on: Salmonella typhimurium (MTCC 1251); assay: Susceptibility (MIC50/MIC90), broth microdilution; details: Salmonella enterica
Method: as §1

[6] = tested on: E. coli 59^R; assay: Susceptibility (MIC, PAE, MBC), broth microdilution; details: Escherichia coli
Method: as §1

[7] = molecular target: E. coli Topoisomerase IA (EcTopoIA) (Escherichia coli, UniProt P06612); assay: Topoisomerase IA relaxation inhibition assay; format: biochemical; details: compared to DMA
Method: E. coli Topoisomerase IA (EcTopoIA) purified protein was diluted in buffer (10 mM Tris-HCl pH 8.0, 50 mM NaCl, 0.1 mg/mL gelatin, 0.5 mM MgCl2). Compounds were added in concentrations 1, 5, 10, 25 and 50 μM to 10 ng of the diluted enzyme present in 20 μL reaction volume. 500 ng of supercoiled pHOT plasmid DNA purified by Qiagen Maxiprep Kit was added. The mixture was incubated at 37° C. for 30 min before termination of the reaction and analysed by agarose gel electrophoresis without Ethidium bromide. The gels were then stained with ethidium bromide which was further photographed over UV transilluminator and analysed by performing densitometry.
Mechanism of inhibition was determined by performing relaxation assay in three different conditions. First, relaxation assay was done with increasing concentrations of Mg^2+ from 0 to 50 mM to find out optimum concentration of Mg^2+ required by EcTopo 1A. Second, relaxation assay was performed with increasing concentration of Mg^2+ in the presence of 5 μM compound and third, reaction we have increased the concentration of compound from 5 to 100 μM in a buffer with 25 mM of MgCl2.

[8] = tested on: E. coli DH5α; assay: Susceptibility (MIC, PAE, MBC), broth microdilution; details: Escherichia coli
Method: as §1

[9] = tested on: Shigella flexineri (MTCC1457); assay: Susceptibility (MIC50/MIC90), broth microdilution; format: cell-based
[10] = tested on: Klebsiella planticola (MTCC 2272); assay: Susceptibility (MIC50/MIC90), broth microdilution; details: MTCC2272
Method: as §1

[11] = tested on: E. coli ATCC 25922; assay: Neutropenic thigh infection model
Method: The neutropenic mice thigh infection model, fully described by. Craig, was used in this study. Female Balb/c mice (6 mice per dosing group) weighing 20-25 g were rendered neutropenic with 2 intraperitoneal injections of cyclophosphamide (150 mg/kg of body weight 4 days prior to bacterial inoculation and 100 mg/kg 1 day before inoculation) 2 h prior to bacterial inoculation. […] Bacteria were injected into the right thigh of each mouse at time zero. […] Neutropenia was defined as an absolute neutrophil count of 500 polymorphonuclear leukocytes/cm^3 of blood. The bacterial suspension was diluted to a concentration of 10^6 CFU/mL with normal saline. Then, 0.1 mL of the bacterial suspension was injected into each posterior thigh muscle 2 h after the second dose of cyclophosphamide was administered. […] Twenty-four hours after drug treatment was begun, the mice were humanely sacrificed. Right thigh muscles from each mouse were aseptically collected, homogenized and serially diluted 1:10 in phosphate buffer saline, and processed for quantitative cultures.

[12] = tested on: E. coli 132^R; assay: Susceptibility (MIC, PAE, MBC), broth microdilution; details: Escherichia coli
Method: as §1

[13] = tested on: P. aeruginosa (Ps 366); assay: HN12b in combination with efflux pump inhibitors (CB method, FICI)
Method: (§2) 96-well microtiter plates containing MIC25 concentrations of the Efflux pump inhibitor (CCCP, PAβN) and HN12b antimicrobial drugs alone and in CB combination were used. The MICs of the individual drugs HN12b, PAβN and CCCP (0.25 to 128 μg/ml) and of the combinations were determined using the broth microdilution technique as recommended by the CLSI. Briefly, the broth microdilution plates were inoculated with each test organism to yield the appropriate density (10^5 CFU/ml) in 100 μl Mueller-Hinton broth (MHB) and incubated for 24 h at 37° C. in ambient air. One well with no antibiotic was used as a positive growth control on each plate. Plates were read for visual turbidity, and results were recorded after 24 h of incubation at 37° C. in ambient air by using a magnifying mirror reader, as turbidity in wells indicated growth of the microorganism. The MIC was determined as the well in the microtiter plate with the lowest drug concentration at which there was no visible growth. […] MICAB was defined as the MIC of drug A in the presence of drug B; MICBA was defined as the MIC of drug B in the presence of drug A.
(§3) The fractional inhibitory concentration index (FICI) was calculated for each antibiotic in each combination by using the following formula: FICA+FICB=FICI, where FICA equals the MIC of drug A in combination divided by the MIC of drug A alone and FICB equals the MIC of drug B in combination divided by the MIC of drug B alone. The FICIs were interpreted as follows: FICI of ≤0.5 will correspond to synergy; FICI of >0.5 to ≤1 will correspond to additivity; FICI of >1 to ≤4 will correspond to no interaction (indifference), and FICI of >4 will correspond antagonism.

[14] = tested on: E. coli K12 mutant ΔacrA; assay: Susceptibility of E. coli K12 and mutants (MIC90); details: Escherichia coli
Method: as §1

[15] = tested on: A. baumannii (AB387); assay: HN12b in combination with efflux pump inhibitors (CB method, FICI); details: for FICI / Interpretation: A. baumannii (AB387)
Method: as §2, §3

[16] = P. aeruginosa (Ps 366), HN12b + CCCP

Sequence of E. coli Topoisomerase IA (P06612 whole entry): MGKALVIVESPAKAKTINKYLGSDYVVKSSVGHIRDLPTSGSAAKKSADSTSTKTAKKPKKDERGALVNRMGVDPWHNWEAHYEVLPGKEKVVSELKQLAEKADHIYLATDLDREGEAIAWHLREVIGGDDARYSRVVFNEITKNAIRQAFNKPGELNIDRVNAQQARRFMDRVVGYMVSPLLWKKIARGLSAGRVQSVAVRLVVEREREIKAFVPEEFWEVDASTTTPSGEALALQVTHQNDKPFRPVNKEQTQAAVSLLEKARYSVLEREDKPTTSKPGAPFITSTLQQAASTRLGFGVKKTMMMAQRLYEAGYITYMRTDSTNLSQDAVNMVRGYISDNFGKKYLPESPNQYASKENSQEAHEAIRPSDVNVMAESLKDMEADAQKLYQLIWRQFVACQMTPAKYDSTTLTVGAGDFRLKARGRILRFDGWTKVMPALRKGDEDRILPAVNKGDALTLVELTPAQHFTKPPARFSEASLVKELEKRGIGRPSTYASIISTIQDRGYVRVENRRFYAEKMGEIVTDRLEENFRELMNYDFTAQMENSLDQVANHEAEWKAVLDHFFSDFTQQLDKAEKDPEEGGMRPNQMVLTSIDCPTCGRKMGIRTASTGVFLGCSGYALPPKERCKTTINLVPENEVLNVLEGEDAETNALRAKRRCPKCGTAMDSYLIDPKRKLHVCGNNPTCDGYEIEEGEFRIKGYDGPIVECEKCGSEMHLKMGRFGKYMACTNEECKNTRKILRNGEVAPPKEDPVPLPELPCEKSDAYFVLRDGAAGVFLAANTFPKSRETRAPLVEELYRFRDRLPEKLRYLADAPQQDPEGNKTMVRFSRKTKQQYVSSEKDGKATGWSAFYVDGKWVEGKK
Sequence of E. coli Topoisomerase IA (EcTopoIA) (P06612 whole entry): as above

CCCN1CCN(c2nc3ccc(-c4nc5ccccc5[nH]4)cc3[nH]2)CC1 [HN12b, 2′-(4-propylpiperazine-1-yl)-1H, 3′H-2,5′-bibenzimidazole]
MIC50 [1]: 7.4 µg/mL (≈ 20.5 µM) | MIC90 [1]: 97.4 µg/mL (≈ 270 µM) | MIC50 [2]: 3.25 µg/mL (≈ 9.02 µM) | MIC90 [2]: 8 µg/mL (≈ 22.2 µM) | mechanism of inhibition (Mg^2+ chelation) [3]: chelates Mg^2+ required for, the religation of DNA | MIC50 [4]: 4.52 µg/mL (≈ 12.5 µM) | MIC90 [4]: 84.5 µg/mL (≈ 234 µM) | MIC50 [5]: < 0.25 µg/mL | MIC90 [5]: < 0.25 µg/mL | MBC [6]: 4 µg/mL (≈ 11.1 µM) | MIC50 [6]: 2 µg/mL (≈ 5.55 µM) | MIC90 [6]: 3.4 µg/mL (≈ 9.43 µM) | Topoisomerase Inhibition activity [7]: improved Topoisomerase Inhibition activity as compared to DMA | MBC [8]: 0.8 µg/mL (≈ 2.22 µM) | MIC50 [8]: 0.2 µg/mL (≈ 0.555 µM) | MIC90 [8]: 0.2 µg/mL (≈ 0.555 µM) | MIC50 [9]: 1.22 µg/mL (≈ 3.38 µM) | MIC90 [9]: 1.22 µg/mL (≈ 3.38 µM) | MIC50 [10]: 30 µg/mL (≈ 83.3 µM) | MIC90 [10]: 128 µg/mL (≈ 355 µM) | in vivo efficacy ([11]; Neutropenia thigh model, E. coli ATCC 25922): good in vivo efficacy | Dose at 1 log reduction ([11]; Neutropenic Thigh, ATCC25922): 3 mg/kg/bw/day | Dose at 3 log reduction ([11]; Neutropenic Thigh, ATCC25922): 5 mg/kg/bw/day | MBC [12]: 4 µg/mL (≈ 11.1 µM) | MIC50 [12]: 2 µg/mL (≈ 5.55 µM) | MIC90 [12]: 3.5 µg/mL (≈ 9.71 µM) | FICI [13, 16]: 0.6 | Interpretation [13, 16]: Synergy (FICI of ≤0.5 will correspond to synergy) | FICI ([13]; P. aeruginosa (Ps 366), HN12b + PAβN): 0.9 | MIC90 ([13]; Pseudomonas aeruginosa): > 128 µg/mL | MIC90 [14]: 0.87 µg/mL (≈ 2.41 µM) | FICI ([15]; HN12b + CCCP): 0.2 | Interpretation ([15]; HN12b + CCCP): Synergy (FICI of ≤0.5 will correspond to synergy) | FICI ([15]; HN12b + PAβN): 0.2 | Interpretation ([15]; HN12b + PAβN): Synergy (FICI of ≤0.5 will correspond to synergy) | MIC90 ([15]; Acinetobacter baumannii): 8 µg/mL

— patent publication US11434227B2, “Broad spectrum antibacterial activity of novel bisbenzimidazoles targeting topoisomerase IA and the synergistic composition of bisbenzimidazole with efflux pump inhibitors against pathogenic bacteria” (Jawaharlal Nehru University (JNU), priority 2016, dated 2022)
